In patent US20120189673A1, “POLYPEPTIDES AND USES THEREOF” (priority 2009, published 2012):
Entries after “also recorded” stand apart in the source; their conditions may differ.

Tested on: RAW 264.7 macrophages
Assay: NO production in RAW 264.7 macrophages stimulated with LPS or other microbial products (Griess reaction)
Type: cell-based, mouse
Procedure: Effects of various microbial products on macrophages in vitro and anti-inflammatory effects by various peptides of HCII and TFPI. 3.5×10^5 cells were seeded in 96-well tissue culture plates (Nunc, 167008) in phenol red-free DMEM (Gibco) supplemented with 10% FBS and antibiotics. Following 6 hours of incubation to permit adherence, cells were stimulated with 10 ng/mL E. coli (0111:B4) LPS (Sigma), lipoteichoic acid, peptioglycan, or zymosan, with and without peptides at the indicated doses (se figure legends and figures). The levels of NO in culture supernatants were determined after 24 hours from stimulation using the Griess reaction. Briefly, nitrite, a stable product of NO degradation, was measured by mixing 50 μl of culture supernatants with the same volume of Griess reagent (Sigma, G4410) and reading absorbance at 550 nm after 15 min. Phenol-red free DMEM with FBS and antibiotics were used as a blank. A standard curve was prepared using 0-80 μM sodium nitrite solutions in ddH20.
LPS effects on macrophages in vitro—[…] cells were seeded in 96-well tissue culture plates (Nunc, 167008) in phenol red-free DMEM (Gibco) supplemented with 10% FBS containing 1% Anti-Anti (Invitrogen). Following 20 hours of incubation to permit adherence, cells were washed and stimulated with 10 ng/ml E. coli (0111:B4) or P. aeruginosa LPS (Sigma), with and without the peptides GGL27, GGL27(S), and DSE25 of various doses. The levels of NO in culture supernatants were determined after 24 hours from stimulation using the Griess reaction (27). Briefly, nitrite, a stable product of NO degradation, was measured by mixing 50 μl of culture supernatants with the same volume of Griess reagent (Sigma, G4410) and reading absorbance at 550 nm after 15 min. Phenol-red free DMEM with FBS and antibiotics were used as a blank. A standard curve was prepared using 0-80 μM sodium nitrite solutions in ddH20.

For “GGLIKTKRKRKKQRVKIAYEEIFVKNM [GGL27, C-terminal peptide of TFPI, plasmin-generated]”, the “anti-endotoxic effects in vitro” value was “anti-endotoxic effects” and the “LPS-mediated NO release” value (LPS from E. coli or P. aeruginosa, peptide at indicated concentrations (FIG. 41C)) was “inhibits NO production; also recorded: inhibited LPS-mediated NO-release”.
